Marks after values point to notes of the source that are not given here.
How the values were obtained:
[1] = target: human opioid receptor-like (ORL-1) (Homo sapiens, UniProt P41146); experiment: In vitro ORL-1 receptor [35S]GTPγS functional assay; type: biochemical
human CYP2D6 = human CYP2D6 (Homo sapiens, UniProt P10635); experiment: Cytochrome P450 2D6 inhibition (dextromethorphan O-demethylation, pooled human hepatic microsome)
[2] = tested on: mechanical hyperalgesia in rats subjected to partial sciatic nerve ligation; experiment: Seltzer model (partial sciatic nerve ligation) of neuropathic pain, paw pressure assay (PWT); type: in vivo, rat; conditions: for maximum analgesic efficacy of pregabalin (10 mg/kg) as fraction of % reversal of Compound B9a: 3 hours after day 1 administration

human CYP2D6, sequence (P10635 whole entry): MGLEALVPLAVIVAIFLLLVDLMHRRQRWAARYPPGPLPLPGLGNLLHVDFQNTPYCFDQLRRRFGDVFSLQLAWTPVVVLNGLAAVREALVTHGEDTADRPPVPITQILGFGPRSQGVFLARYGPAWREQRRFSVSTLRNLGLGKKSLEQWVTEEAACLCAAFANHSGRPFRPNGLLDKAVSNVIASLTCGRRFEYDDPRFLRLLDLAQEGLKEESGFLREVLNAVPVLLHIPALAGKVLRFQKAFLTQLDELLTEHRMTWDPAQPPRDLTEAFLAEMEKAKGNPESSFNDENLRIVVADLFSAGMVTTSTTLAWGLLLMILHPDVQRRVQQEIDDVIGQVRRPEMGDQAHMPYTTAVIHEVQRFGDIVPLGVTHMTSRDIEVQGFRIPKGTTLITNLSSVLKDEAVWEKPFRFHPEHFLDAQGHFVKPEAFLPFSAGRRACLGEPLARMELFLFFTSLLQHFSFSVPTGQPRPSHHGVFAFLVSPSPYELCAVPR
human opioid receptor-like (ORL-1), sequence (P41146 whole entry): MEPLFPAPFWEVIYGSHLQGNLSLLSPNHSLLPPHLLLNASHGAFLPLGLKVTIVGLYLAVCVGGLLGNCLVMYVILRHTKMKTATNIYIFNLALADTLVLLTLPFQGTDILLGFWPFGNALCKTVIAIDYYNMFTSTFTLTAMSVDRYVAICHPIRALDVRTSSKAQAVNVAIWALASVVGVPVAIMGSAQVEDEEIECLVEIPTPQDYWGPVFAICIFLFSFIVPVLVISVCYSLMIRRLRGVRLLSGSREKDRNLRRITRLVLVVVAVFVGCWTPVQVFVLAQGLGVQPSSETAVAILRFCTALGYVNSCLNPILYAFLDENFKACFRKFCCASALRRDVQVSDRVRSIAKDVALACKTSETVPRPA

Work on `Nc1ccn(-c2nc3ccccc3n([C@H]3C[C@H]4CCC[C@@H](C3)N4[C@H]3C[C@@H]4CCC[C@@H](C4)C3)c2=O)c(=O)n1` [B5a(i), 1-((1R,1′R,3r,3′R,5S,5′S)-[3,9′-bi(9′-azabicyclo[3.3.1]nonan)]-3′-yl)-3-(4-amino-2-oxopyrimidin-1(2H)-yl)quinoxalin-2(1H)-one] yielded an EC50 [1] of over 20 µM and an IC50 (human CYP2D6) of over 20 µM.
In the case of `O=C(O)Cn1cccc(-c2nc3ccccc3n([C@H]3C[C@H]4CCC[C@@H](C3)N4C3CCCCCCCCC3)c2=O)c1=O` [BB13c(iii), 2-(3-(4-((1R,3r,5S)-9-cyclodecyl-9-azabicyclo[3.3.1]nonan-3-yl)-3-oxo-3,4-dihydroquinoxalin-2-yl)-2-oxopyridin-1(2H)-yl)acetic acid], the EC50 [1] is reported as 0.101 ± 0.02 µM and the IC50 (human CYP2D6) is reported as over 20 µM.
In the case of `O=c1cnn(-c2nc3ccccc3n([C@H]3C[C@H]4CC[C@@H](C3)N4[C@H]3C[C@@H]4CCC[C@@H](C4)C3)c2=O)c(=O)[nH]1` [Compound A9a, 2-(4-((1R,3R,5S)-8-((1R,3r,5S)-bicyclo[3.3.1]nonan-3-yl)-8-azabicyclo[3.2.1]octan-3-yl)-3-oxo-3,4-dihydroquinoxalin-2-yl)-1,2,4-triazine-3,5(2H,4H)-dione], the EC50 [1] is reported as 0.378 ± 0.055 µM and the IC50 (human CYP2D6) is reported as over 20 µM.
In the case of `O=c1cnn(-c2nc3ccccc3n([C@H]3C[C@H]4CCC[C@@H](C3)N4[C@H]3C[C@@H]4CCC[C@@H](C4)C3)c2=O)c(=O)[nH]1` [Compound B9a], the “reversal compared with the pregabalin control” value ([2]; 1, 3, or 10 mg/kg, all measured time-points on the first day of administration) is reported as “more effective reversal than the pregabalin control”, the “effects against mechanical hyperalgesia” value ([2]; once daily administration (3 or 10 mg/kg) for seven days, rats with partial sciatic nerve ligation) is reported as “statistically significant effects” and the “% Reversal [mean]” value ([2]; rat Seltzer model, oral 1 mg/kg, 1 h after administration (day 1)) is reported as 27.0* %. For the same compound, the “% Reversal [mean]” value ([2]; rat Seltzer model, oral 1 mg/kg, 3 h after administration (day 1), 1 mg/kg) was 37.0%, the “% Reversal [mean]” value ([2]; rat Seltzer model, oral 1 mg/kg, 5 h after administration (day 1)) was 27.0* % and the “% Reversal [mean]” value ([2]; rat Seltzer model, oral 1 mg/kg, pre-administration) was 0%. The “% Reversal [mean]” value ([2]; rat Seltzer model, oral 3 mg/kg once daily, 1 h after administration (day 4)) was 40.8** %, the “% Reversal [mean]” value ([2]; rat Seltzer model, oral 3 mg/kg once daily, 1 h after administration (day 7)) was 47.7** % and the “% Reversal [mean]” value ([2]; rat Seltzer model, oral 3 mg/kg once daily, 3 h after administration (day 4), 3 mg/kg) was 46.2%. For the same compound, the “% Reversal [mean]” value ([2]; rat Seltzer model, oral 3 mg/kg once daily, 3 h after administration (day 7), 3 mg/kg) was 55.2%, the “% Reversal [mean]” value ([2]; rat Seltzer model, oral 3 mg/kg once daily, 5 h after administration (day 4)) was 36.9** % and the “% Reversal [mean]” value ([2]; rat Seltzer model, oral 3 mg/kg once daily, 5 h after administration (day 7)) was 42.2** %. For the same compound, the “% Reversal [mean]” value ([2]; rat Seltzer model, oral 3 mg/kg, 1 h after administration (day 1)) was 33.1** %, the “% Reversal [mean]” value ([2]; rat Seltzer model, oral 3 mg/kg, 3 h after administration (day 1), 3 mg/kg) was 46.2% and the “% Reversal [mean]” value ([2]; rat Seltzer model, oral 3 mg/kg, 5 h after administration (day 1)) was 34.6** %. The “% Reversal [mean]” value ([2]; rat Seltzer model, oral 3 mg/kg, pre-administration) was 0%, the “% Reversal [mean]” value ([2]; rat Seltzer model, oral 10 mg/kg once daily, 1 h after administration (day 4)) was 53.8** % and the “% Reversal [mean]” value ([2]; rat Seltzer model, oral 10 mg/kg once daily, 1 h after administration (day 7)) was 50.0** %. For the same compound, the “% Reversal [mean]” value ([2]; rat Seltzer model, oral 10 mg/kg once daily, 3 h after administration (day 4), 10 mg/kg) was 64.2%, the “% Reversal [mean]” value ([2]; rat Seltzer model, oral 10 mg/kg once daily, 3 h after administration (day 7), 10 mg/kg) was 63.5% and the “% Reversal [mean]” value ([2]; rat Seltzer model, oral 10 mg/kg once daily, 5 h after administration (day 4)) was 47.7** %. For the same compound, the “% Reversal [mean]” value ([2]; rat Seltzer model, oral 10 mg/kg once daily, 5 h after administration (day 7)) was 42.2** %, the “% Reversal [mean]” value ([2]; rat Seltzer model, oral 10 mg/kg, 1 h after administration (day 1)) was 49.2** % and the “% Reversal [mean]” value ([2]; rat Seltzer model, oral 10 mg/kg, 3 h after administration (day 1), 10 mg/kg) was 61.5%. For the same compound, the “% Reversal [mean]” value ([2]; rat Seltzer model, oral 10 mg/kg, 5 h after administration (day 1)) was 46.9** %, the “% Reversal [mean]” value ([2]; rat Seltzer model, oral 10 mg/kg, pre-administration) was 0% and the “tolerance development with repeated administration” value ([2]; repeated administration for 7 days, rat Seltzer model) was “lack of tolerance development”. For the same compound, the IC50 (human CYP2D6) was over 20 µM.
`Cc1nn(-c2nc3ccccc3n([C@H]3C[C@H]4CCC[C@@H](C3)N4[C@H]3C[C@@H]4CCC[C@@H](C4)C3)c2=O)c(=O)[nH]c1=O` [Compound B10a, 2-(4-((1R,1′R,3r,3′R,5S,5′S)-[3,9′-bi(9′-azabicyclo[3.3.1]nonan)]-3′-yl)-3-oxo-3,4-dihydroquinoxalin-2-yl)-6-methyl-1,2,4-triazine-3,5(2H,4H)-dione] gave an EC50 [1] of over 20 µM and an IC50 (human CYP2D6) of over 20 µM.
In the case of `O=c1ccn(-c2nc3ccccc3n([C@H]3C[C@H]4CCC[C@@H](C3)N4[C@H]3C[C@@H]4CCC[C@@H](C4)C3)c2=O)c(=O)[nH]1` [Compound B13a, 1-(4-((1R,1′R,3r,3′R,5S,5′S)-[3,9′-bi(9′-azabicyclo[3.3.1]nonan)]-3′-yl)-3-oxo-3,4-dihydroquinoxalin-2-yl)pyrimidine-2,4(1H,3H)-dione], the EC50 [1] is reported as over 20 µM and the IC50 (human CYP2D6) is reported as over 20 µM.
In the case of `O=C1CN(c2nc3ccccc3n([C@H]3C[C@H]4CCC[C@@H](C3)N4[C@H]3C[C@@H]4CCC[C@@H](C4)C3)c2=O)C(=O)N1` [Compound B17a, 1-(4-((1R,1′R,3r,3′R,5S,5′S)-[3,9′-bi(9′-azabicyclo[3.3.1]nonan)]-3′-yl)-3-oxo-3,4-dihydroquinoxalin-2-yl)imidazolidine-2,4-dione], the EC50 [1] is reported as over 20 µM and the IC50 (human CYP2D6) is reported as over 20 µM.
In the case of `CC1(C)C(=O)NC(=O)N1c1nc2ccccc2n([C@H]2C[C@H]3CCC[C@@H](C2)N3[C@H]2C[C@@H]3CCC[C@@H](C3)C2)c1=O` [Compound B19a, 1-(4-((1R,1′R,3r,3′R,5S,5′S)-[3,9′-bi(9′-azabicyclo[3.3.1]nonan)]-3′-yl)-3-oxo-3,4-dihydroquinoxalin-2-yl)-5,5-dimethylimidazolidine-2,4-dione], the EC50 [1] is reported as over 20 µM and the IC50 (human CYP2D6) is reported as over 20 µM.
`O=C1CNC(=O)N1c1nc2ccccc2n([C@H]2C[C@H]3CCC[C@@H](C2)N3[C@H]2C[C@@H]3CCC[C@@H](C3)C2)c1=O` [Compound B20a, 3-(4-((1R,1′R,3r,3′R,5S,5′S)-[3,9′-bi(9′-azabicyclo[3.3.1]nonan)]-3′-yl)-3-oxo-3,4-dihydroquinoxalin-2-yl)imidazolidine-2,4-dione] was tested, and the EC50 [1] was over 20 µM and the IC50 (human CYP2D6) was over 20 µM.
Compound `O=c1[nH]cnn1-c1nc2ccccc2n([C@H]2C[C@H]3CCC[C@@H](C2)N3[C@H]2C[C@@H]3CCC[C@@H](C3)C2)c1=O` [Compound B23a, 1-((1R,3r,3′R,5S,5′S)-[3,9′-bi(9′-azabicyclo[3.3.1]nonan)]-3′-yl)-3-(5-oxo-4,5-dihydro-1H-1,2,4-triazol-1-yl)quinoxalin-2(1H)-one] has an EC50 [1] of over 20 µM and an IC50 (human CYP2D6) of 17.8 µM.
`O=c1cnn(-c2nc3ccccc3n([C@H]3C[C@H]4CCC[C@@H](C3)N4C3CCCCCCC3)c2=O)c(=O)[nH]1` [Compound H9c, 2-(4-((1R,3r,5S)-9-cyclooctyl-9-azabicyclo[3.3.1]nonan-3-yl)-3-oxo-3,4-dihydroquinoxalin-2-yl)-1,2,4-triazine-3,5(2H,4H)-dione] showed an EC50 [1] of 0.376 ± 0.016 µM and an IC50 (human CYP2D6) of over 20 µM.
`CC(C)C[C@H](CN)CC(=O)O` [Pregabalin, pregabalin, reference compound] was tested, and the “% Reversal [mean]” value ([2]; rat Seltzer model, positive control column, oral 10 mg/kg, 3 h after administration (day 1), 10 mg/kg) was 28.0** %, the “% Reversal [mean]” value ([2]; rat Seltzer model, positive control column, oral 10 mg/kg, 3 h after administration (day 1), listed as pregabalin, 10 mg/kg) was 28.0% and the “% Reversal [mean]” value ([2]; rat Seltzer model, positive control, oral 10 mg/kg, 1 h after administration (day 1)) was 17.0%. For the same compound, the “% Reversal [mean]” value ([2]; rat Seltzer model, positive control, oral 10 mg/kg, 5 h after administration (day 1)) was 15.0%, the “% Reversal [mean]” value ([2]; rat Seltzer model, positive control, oral 10 mg/kg, pre-administration) was 0% and the “maximum analgesic efficacy of pregabalin (10 mg/kg) as fraction of % reversal of Compound B9a” value ([2]; versus B9a 1 mg/kg) was “about 0.76”. For the same compound, the “maximum analgesic efficacy of pregabalin (10 mg/kg) as fraction of % reversal of Compound B9a” value ([2]; versus B9a 3 mg/kg) was “about 0.61” and the “maximum analgesic efficacy of pregabalin (10 mg/kg) as fraction of % reversal of Compound B9a” value ([2]; versus B9a 10 mg/kg) was “about 0.46”.
Work on `O=c1cncc(-c2nc3ccccc3n([C@H]3C[C@H]4CCC[C@@H](C3)N4[C@H]3C[C@@H]4CCC[C@@H](C4)C3)c2=O)[nH]1` [R3a(i), 1-((1R,1′R,3r,3′R,5S,5′S)-[3,9′-bi(9′-azabicyclo[3.3.1]nonan)]-3′-yl)-3-(6-oxo-1,6-dihydropyrazin-2-yl)quinoxalin-2(1H)-one] yielded an IC50 (human CYP2D6) of over 20 µM.
For `O=c1[nH]nc(-c2nc3ccccc3n([C@H]3C[C@H]4CCC[C@@H](C3)N4[C@H]3C[C@@H]4CCC[C@@H](C4)C3)c2=O)[nH]1` [R6a(i)(i), 1-((1R,1′R,3r,3′R,5S,5′S)-[3,9′-bi(9′-azabicyclo[3.3.1]nonan)]-3′-yl)-3-(5-oxo-4,5-dihydro-1H-1,2,4-triazol-3-yl)quinoxalin-2(1H)-one], the IC50 (human CYP2D6) was over 20 µM.
Work on `O=C(O)Cn1cccc(-c2nc3ccccc3n([C@H]3C[C@H]4CCC[C@@H](C3)N4[C@H]3C[C@@H]4CCC[C@@H](C4)C3)c2=O)c1=O` [R15a(iii), 2-(3-(4-((1R,1′R,3r,3′R,5S,5′S)-[3,9′-bi(9′-azabicyclo[3.3.1]nonan)]-3′-yl)-3-oxo-3,4-dihydroquinoxalin-2-yl)-2-oxopyridin-1(2H)-yl)acetic acid] yielded an IC50 (human CYP2D6) of over 20 µM.
`C[C@@H]1C[C@@H]2C[C@H](C1)C[C@@H](N1[C@@H]3CCC[C@H]1C[C@@H](n1c(=O)c(-c4cc(C(=O)O)c[nH]c4=O)nc4ccccc41)C3)C2` [R28a(i), 5-(4-((1R,1′R,3r,3′R,5S,5′S,7S)-7-methyl-[3,9′-bi(9′-azabicyclo[3.3.1]nonan)]-3′-yl)-3-oxo-3,4-dihydroquinoxalin-2-yl)-6-oxo-1,6-dihydropyridine-3-carboxylic acid] gave an IC50 (human CYP2D6) of over 20 µM.
`CC1(C)[C@H]2CC[C@@H](CCN3[C@@H]4CCC[C@H]3C[C@@H](n3c(=O)c(-c5ccc[nH]c5=O)nc5ccccc53)C4)[C@@H]1C2` [U55a(i), 1-((1R,3S,5S)-9-(2-((1S,2S,5S)-6,6-dimethylbicyclo[3.1.1]heptan-2-yl)ethyl)-9-azabicyclo[3.3.1]nonan-3-yl)-3-(2-oxo-1,2-dihydropyridin-3-yl)quinoxalin-2(1H)-one] showed an IC50 (human CYP2D6) of over 20 µM.

— patent publication US9085561B2, “Cyclic urea- or lactam-substituted quinoxaline-type piperidines as ORL-1 modulators” (priority 2012, dated 2015)
